Common to all, as to experiment: growth of human tumour cells (NCI), 48 h
Experiment [1] has as its system CCRF-CEM leukemia.
The test system of experiment [2] is COLO 205 colon.
The subject of experiment [3] is IGROV1 ovarian.
In experiment [4] the test system is K-562 leukemia.
Experiment [5] concerns MOLT-4 leukemia.
For experiment [6], the system named is NCI-H460 lung.
For experiment [7], the system named is OVCAR-3 ovarian.
Experiment [8] concerns OVCAR-4 ovarian.
For experiment [9], the system named is UO-31 renal.
In experiment [10] the test system is UACC-62 melanoma.

“And” between values parts separate entries of the source, which are not always exact repeats. Identical values can stand only once.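 Growth conditions: 96-well plates. Treatment: test compound, 48 hours, 5 concentrations. Analysis: linear interpolation between bracketing concentrations; unreached endpoints set to highest concentration. Abbreviation: GI50, concentration required for 50% inhibition of growth. The concentration for full growth arrest is given as TGI.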

For the molecule `C[C@H]1CCC/C=C/[C@@H]2C[C@H](O)C[C@H]2[C@H](O)/C=C/C(=O)O1`, the GI50 is < 0.0183 µM and 0.0501 µM and 0.0981 µM in [1]; 0.0395 µM and 0.107 µM and 0.0723 µM in [3]; 0.236 µM in experiment [4]; < 0.0165 µM and 0.0481 µM and 0.0564 µM in experiment [5]; 0.036 µM and 0.0837 µM and 0.0828 µM in [6]; 0.0382 µM in experiment [7]. For the same molecule, the GI50 in experiment [8] was 0.0312 µM; in [9], 0.0301 µM. Also, the TGI was 5.53 µM in experiment [1]; < 0.01 µM and 0.0354 µM in experiment [2]; 1.12 µM and 0.973 µM and 0.645 µM in experiment [3]; 5.62 µM and > 49.1 µM in experiment [8]; 0.0655 µM and 0.492 µM in experiment [9].
As for `CN1NC(c2ccccc2)=C(C#N)C(=O)CC1c1ccc(F)cc1` (centres undefined), the TGI in experiment [1], in [2], in experiment [5], in experiment [6] and in experiment [8] was over 100 µM in each case.
For `Cn1c2cn[nH]c(=O)c2c2ccc3ccccc3c21`, the TGI is over 100 µM in [1]; over 100 µM in experiment [2]; 32.2 µM in [3]; over 100 µM in experiment [4]; over 100 µM in [5]; over 100 µM in experiment [6]. Besides, the TGI was over 100 µM in experiment [7], over 100 µM in [8], over 100 µM in [10] and 70.6 µM in experiment [9].
Turning to `COC(=O)c1ccc2c(c1)sc1nc(-c3ccc(OC)cc3)cn12`, the TGI in experiment [1], in experiment [2], in [3], in [4], in experiment [5] and in experiment [6] was over 100 µM in each case. Moreover, the TGI in experiment [7], in experiment [8], in experiment [10] and in experiment [9] was over 100 µM throughout.
On to `O=C(CSSCC(=O)OCCS(=O)(=O)Nc1ccc(Br)cc1)OCCS(=O)(=O)Nc1ccc(Br)cc1`, for which the TGI in experiment [1] is over 100 µM; in experiment [2], 62.2 µM; in experiment [3] it was 88.7 µM; in [4] it was over 100 µM; in [5], 15.4 µM; in [6], over 100 µM. Besides, the TGI in experiment [7] is 37.6 µM; in [8] it was 33 µM; in experiment [10] it was 34.6 µM; in experiment [9], over 100 µM.
On to `O=S(=O)(O)c1ccc2c(N=Nc3ccccc3)c(O)ccc2c1`, for which the TGI in experiment [1], in experiment [2], in experiment [3], in experiment [4], in experiment [5] and in experiment [6] was over 100 µM in each case. In addition, the TGI in experiment [7], in [8], in experiment [10] and in [9] was over 100 µM each time.
On to `Cc1cc2c(cc1Cl)SC(c1ccccc1O)NS2(=O)=O` (centres undefined), for which the TGI is 26.3 µM in [1]; 69 µM in experiment [2]; over 100 µM in experiment [3]; over 100 µM in experiment [4]; over 100 µM in experiment [5]; over 100 µM in experiment [6]. Moreover, the TGI in experiment [7] is 78.4 µM; in [8], over 100 µM; in [10], over 100 µM; in [9] it was over 100 µM.
Take `C/C(=C\C(=N\NC(=N)N)c1ccccc1)c1ccccc1`: the TGI in experiment [1] was 1.8 µM; in experiment [2], 0.284 µM; in [3], 2.11 µM; in experiment [4] it was 3.88 µM; in experiment [5], 2.04 µM; in experiment [6], 11.1 µM. The figures for the TGI in experiment [7], in [8] and in [10] were 1.03 µM, 3.16 µM and 3.23 µM, respectively.
For the molecule `CC(C)(C)c1cc(-c2nc3ccc(N4CCN(CCO)CC4)cc3[nH]2)cc(C(C)(C)C)c1O`, the GI50 in experiment [2] is 2.21 µM; in experiment [3] it was 3.25 µM; in [7], 3.36 µM; in experiment [10], 1.73 µM. Besides, the TGI in experiment [2] is 4.78 µM; in [3] it was over 100 µM; in experiment [7], over 100 µM; in experiment [10] it was 3.22 µM.
As to `Cc1cn(Cc2cn(CC3OC(n4cc(C)c(=O)[nH]c4=O)CC3O)nn2)c(=O)[nH]c1=O` (centres undefined), the TGI in [1], in experiment [2], in [5], in [7], in experiment [8] and in [10] was over 100 µM throughout. Besides, in experiment [9], the TGI is over 100 µM.
Turning to `Cn1c(=O)ccc2c(=O)c3ccccc3oc21`, the TGI in experiment [1], in experiment [2], in experiment [3], in experiment [4], in experiment [6] and in [7] was over 100 µM throughout. Further, the results for the TGI in experiment [8], in [10] and in experiment [9] were over 100 µM, over 100 µM and 16.8 µM, respectively.
For the molecule `O=c1c(-c2ccccc2)c(SCCN2CCOCC2)n(-c2ccccc2)c(=S)n1-c1ccccc1`, the TGI in [1], in experiment [2], in experiment [3], in experiment [4], in experiment [5] and in [6] was over 100 µM in each case. The TGI in [7], in [8] and in [10] was over 100 µM each time.
On to `COc1cccc(NC(=O)CC(=O)NN2C(=O)/C(=C/c3ccc(N(CCC#N)CCC#N)cc3)N=C2c2cc([N+](=O)[O-])ccc2Cl)c1`, for which the TGI in experiment [1], in experiment [2], in [3], in experiment [4], in [5] and in experiment [7] was over 100 µM each time. Also, the TGI in experiment [8], in experiment [10] and in experiment [9] was over 100 µM in each case.
`C=C1CC2C3C=C(C)C4=CC(=O)CC[C@]4(C)C3CC[C@]2(C)[C@@]1(OC(C)=O)C(C)=O` (some centres undefined): the GI50 in experiment [1] is 2.11 µM; in [3], over 100 µM; in experiment [6] it was 3.69 µM; in experiment [8], 2.91 µM; in [10], 3.38 µM. Moreover, the TGI in experiment [1], in experiment [3], in experiment [6], in [8] and in [10] was over 100 µM in each case.

The record behind these values is PubChem BioAssay (NCI).
